# Experimental data reported in patent publication US10820588B2, “Compositionally and morphologically controlled nanostructures for delivery of micronutrients and suppression of disease in agriculture” (Wisconsin Alumni Research Foundation, priority 2018, dated 2020).
# Assays:
# Assay type in all cases: in vivo
# [1] = system: Fusarium wilt of watermelon; test: Field experiment Location 2, Fusarium wilt of watermelon; conditions: location 2, 400 mg/L, not statistically significant
# Procedure: (§1) Field experiments were conducted to evaluate if successful greenhouse results would translate to a field application. The following six treatments were established at two field locations (Hamden, Conn.—Location 1; and Griswold, Conn.—Location 2) to evaluate their effect on growth and Fusarium wilt of watermelon: CuO nanoparticles, Cu3(PO4)2.3H2O nanosheets, commercial powders of CuO and Cu3(PO4)2, CuSO4, and untreated controls. The commercial powders are not nanostructured as particles within the powders typically have a range of sizes from about 1 μm to 1 mm. Again, the primary purpose of this work was to compare the efficacy of the two nanoscale materials, and the suspensions of CuO and Cu3(PO4)2 commercial powders and the solution of CuSO4 were included only for comparison. It is noted that the CuO and Cu3(PO4)2 materials were used at concentrations where there were solid particles present in the liquid formulations, so those liquid formulations are best characterized as being suspensions with some dissolved ions. By contrast, because of its high solubility, CuSO4 in liquid is completely dissolved and thus is a true solution (only ions present and no remaining solid). […]
# (§2) Field microplots were prepared in early June, 2017. […] Total plant biomass and fruit mass were determined at harvest, and select tissues were dried for analysis by ICP mass spectrometry (ICP-MS) as noted below.
# [2] = system: Fusarium wilt of watermelon; test: Field experiment Location 1, Fusarium wilt of watermelon
# Procedure: as §1, §2
# [3] = system: F. oxysporum f. sp. niveum; test: Greenhouse foliar spray, watermelon with or without Fusarium; conditions: disease conditions
# Procedure: Watermelon seeds (Citrullus lanatus Thunb. cv Sugar Baby, Harris Seed Co., Rochester, N.Y.) were germinated in soilless potting mix (ProMix BX, Premier Hort Tech, Quakertown, Pa., USA) and fertilized once after three weeks with 40 mL of Peter's soluble 20-10-20 (N—P—K) fertilizer (R. J. Peters Inc., Allentown, Pa.). When plants reached the 3- to 4-leaf stage, uniform medium size plants were selected for NP exposure. […] For CuO NP, the suspension was sonicated using a probe sonicator for 2 min in an ice bath. […] One to two drops (1 ml/L) of Regulaid® nonionic surfactant were added into the suspensions prior to exposure. Polyvinylidene chloride film (Saran™ wrap) was fitted around the stem to prevent soil exposure to the NP suspensions. Although the primary purpose of this work was to compare different nanoscale materials, bulk CuO and CuSO4 (Sigma, St. Louis, Mo.) were used for additional comparative purposes in the greenhouse experiments. […]
# F. oxysporum f. sp. niveum was prepared on Japanese millet, as previously described. […] The progress of disease as represented by the cumulative ratings of disease on replicate plants was plotted over time and the AUDPC was calculated using the trapezoid rule: AUDPC=Σ[Yi±Y(i±1)]/2×(t(i±1)−ti), where Yi=the disease rating at time ti. […]
smiles,measurement,setting,value
O=S(=O)([O-])[O-].[Cu+2] [CuSO4],increase of fruit yield,[1],38.2%
same,disease result compared with the nanomaterial treatments,"[2]; field, 400 mg/L",statistically equivalent
same,increase of yield (total wet mass of fruit per plot) over the disease condition,"[2]; location 1, 400 mg/L",no such benefit
same,effect on disease-induced decrease in vine length,[3],had no impact
